Experimental data from PMC12452389, “Arginine-Derived Cationic Surfactants Containing Phenylalanine and Tryptophan: Evaluation of Antifungal Activity, Biofilm Eradication, Cytotoxicity, and Ecotoxicity” (Journal of Xenobiotics, 2025).
In brackets after ≈: the same amount, converted by molar mass. Several values for one entry are separate records, joined by “and”; a condition that tells them apart may be missing. Identical values can stand only once. Counter-ions that a name gives are not always drawn. Like-named read-outs stand apart in the source and are kept apart here.

Experiments:
[1] = system: Candida glabrata ATCC 66032; test: MIC broth microdilution; type: cell-based
Method in brief: (§1)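 Broth microdilution in RPMI 1640, twofold compound dilutions 256–2 μg/mL, final inoculum 7.5 × 10^5 CFU/mL from Sabouraud-grown colonies. MIC read by turbidity and confirmed by 0.015% resazurin, 3 h at 30 °C, blue-to-pink colour change.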

[2] = system: Candida albicans ATCC 90028; test: MIC broth microdilution; type: cell-based; conditions: C. albicans; for MIC: Candida albicans, ATCC90028, read-out: MIC
Method in brief: as §1

[3] = system: Candida rugosa ATCC 10571; test: MIC broth microdilution; type: cell-based; conditions: C. rugosa; for MIC: Diutina rugosa, ATCC10571, read-out: MIC
Method in brief: as §1

[4] = system: Candida auris ATCC 21092; test: MIC broth microdilution; type: cell-based; conditions: C. auris; for MIC: Candidozyma auris, ATCC21092, read-out: MIC
Method in brief: as §1

[5] = system: Candida parapsilosis ATCC 22019; test: MIC broth microdilution; type: cell-based; conditions: C. parapsilosis; for MIC: Lodderomyces parapsilosis, ATCC22019, read-out: MIC
Method in brief: as §1

[6] = system: Candida tropicalis ATCC 7349; test: MIC broth microdilution; type: cell-based; conditions: C. tropicalis; for MIC: Candida tropicalis, ATCC7349, read-out: MIC
Method in brief: as §1

[7] = system: Cyberlindnera jadinii ATCC 60459 (C. jardinii); test: MIC broth microdilution; type: cell-based; conditions: for Selectivity Index (HC50/MIC): C. jardini; for MIC: Williopsis jadinii
Method in brief: as §1

[8] = system: Vibrio fischeri; test: Luminescence reduction test; type: cell-based; conditions: Aliivibrio fischeri, 0.25 h; Vibrio fischeri bioluminescence, 15 min of exposure; 95% confidence intervals in parentheses
Procedure: Ecotoxicological assessment of cationic surfactants was conducted using the Vibrio fischeri luminescent bioassay. This method relies on the measurement of decreased bioluminescent output from marine bacteria following contact with potentially toxic substances. Regression analysis was used to determine the concentration of the compound that caused a 50% reduction (EC50) in the amount of light emitted by the bacteria. The stated toxicity statistics given are based on the bacteria being exposed to the ionic liquid solution for 15 min at 15 °C.

[9] = Surface tension, pendant drop tensiometer (cmc, γc); type: physicochemical; conditions: for cmc: from surface tension
Procedure: Surface tension was measured using a custom-built pendant drop tensiometer, as described in detail in reference. Briefly, a droplet of surfactant solution is formed at the tip of a straight-cut Teflon tube. The image of the droplet is captured using a webcam, and its shape is analyzed by fitting the droplet profile to the Laplace–Young equation [14], To minimize evaporation, all measurements were conducted in a saturated humid atmosphere. The use of this technique is especially well-suited for cationic surfactants because it helps to mitigate complications related to surface adsorption. Critical micelle concentration values (cmc) were determined by finding the intersection of the linear fits before and after the break in the curves.

[10] = set-up: method as in PMID 36559096; conditions: conductivity values; cited from earlier work
[11] = system: erythrocytes; test: Hemolytic activity assay; type: cell-based; conditions: rabbit erythrocytes
Method in brief: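 Rabbit erythrocytes washed in PBS pH 7.4, exposed to varying surfactant concentrations in PBS for 10 min at room temperature. Hemolysis read as supernatant absorbance at 540 nm relative to distilled-water 100% lysis control; HC50 taken from concentration–response curves.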

[12] = system: Daphnia magna; test: Acute toxicity, immobilization test; type: in vivo; conditions: Daphnia magna, 48 h
Method in brief: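 Neonates under 24 h old exposed in the dark at 20 °C, pH 8.0, Ca:Mg 4:1, hardness 250 mg/L as CaCO3, to ten geometric concentrations, 4 replicates of 5 animals. Immobility (no swimming after 15 s gentle stimulation) scored at 48 h; immobilization plotted against concentration on probability–log scale.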

[13] = Nakaseomyces glabratus, ATCC66032, 24 h, C. glabrata, RPMI 1640, 24 h, 30 °C, read-out: MIC
[14] = Nakaseomyces glabratus, ATCC66032, C. glabrata, value in parentheses, read-out: MIC
[15] = ATCC60459, C. jardinii, value in parentheses, read-out: MIC
[16] = ATCC60459, C. jardinii, RPMI 1640, 24 h, 30 °C, read-out: MIC

Compound	Selectivity Index (HC50/MIC) ([1]; C. glabrata, Table S2)	MIC [1, 13]	MIC [1, 14]	Selectivity Index (HC50/MIC) ([2]; Table S2)	MIC ([2]; RPMI 1640, 24 h, 30 °C)	MIC ([2]; value in parentheses)	Selectivity Index (HC50/MIC) ([3]; Table S2)	MIC ([3]; RPMI 1640, 24 h, 30 °C)	MIC ([3]; value in parentheses)	Selectivity Index (HC50/MIC) ([4]; Table S2)	MIC ([4]; RPMI 1640, 24 h, 30 °C)	MIC ([4]; value in parentheses)	Selectivity Index (HC50/MIC) ([5]; Table S2)	MIC ([5]; RPMI 1640, 24 h, 30 °C)	MIC ([5]; value in parentheses)	Selectivity Index (HC50/MIC) ([6]; Table S2)	MIC ([6]; RPMI 1640, 24 h, 30 °C)	MIC ([6]; value in parentheses)	Selectivity Index (HC50/MIC) ([7]; Table S2)	EC50 [8]	other results
CCCCCCCCCCCCNC(=O)C(CCCNC(=N)N)NC(=O)C(N)Cc1ccccc1 (centres unmarked) [PANHC12, phenylalanine-arginine dodecyl amide dihydrochloride]	0.8	32 µg/mL	56 µM	0.8	32 µg/mL	56 µM	0.4	64 µg/mL	112 µM	0.4	64 µg/mL	112 µM	0.8	32 µg/mL	56 µM	0.8	32 µg/mL	56 µM	0.8	3 µg/mL	Selectivity Index (HC50/MIC) ([1]; C. glabrata, Table S1): 0.8; Selectivity Index (HC50/MIC) ([2]; Table S1): 0.8; Selectivity Index (HC50/MIC) ([3]; Table S1): 0.4; Selectivity Index (HC50/MIC) ([4]; Table S1): 0.4; Selectivity Index (HC50/MIC) ([5]; Table S1): 0.8; Selectivity Index (HC50/MIC) ([6]; Table S1): 0.8; Selectivity Index (HC50/MIC) ([7]; Table S1): 0.8; MIC ([7]; ATCC60459, 24 h): 32 µg/mL and 88 µM; MIC [7, 15]: 56 µM; γc (surface tension at the cmc) [9]: 30.4 ± 2.6 mNm^−1; cmc [9]: 1.5 mM; cmc Cond [10]: 2.2 mM; HC50 ([11]; 10 min, room temperature): 26 ± 1.2 µg/mL; HC50 ([11]; value in parentheses): 46 ± 2.2 µM; EC50 [12]: 3.4 µg/mL
CCCCCCCCCCCCCCNC(=O)C(CCCNC(=N)N)NC(=O)C(N)Cc1ccccc1 (centres unmarked) [PANHC14]	2.4	8 µg/mL	14 µM	1.2	16 µg/mL	27 µM	1.2	16 µg/mL	27 µM	1.2	16 µg/mL	27 µM	2.4	8 µg/mL	14 µM	2.4	8 µg/mL	14 µM	1.2	1.8 µg/mL (≈ 3.48 µM)	MIC [7, 16]: 16 µg/mL; MIC [7, 15]: 27 µM; γc (surface tension at the cmc) [9]: 28.7 ± 1.5 mNm^−1; cmc [9]: 0.35 mM; cmc Cond [10]: 0.7 mM; HC50 ([11]; 10 min, room temperature): 20 ± 0.5 µg/mL; HC50 ([11]; value in parentheses): 34 ± 0.8 µM; EC50 [12]: 0.71 µg/mL (≈ 1.37 µM)
CCCCCCCCCCNC(=O)C(CCCNC(=N)N)NC(=O)C(N)Cc1c[nH]c2ccccc12 (centres unmarked) [TANHC10]	1.15	64 µg/mL	112 µM	1.15	64 µg/mL	112 µM	18	4 µg/mL	7 µM	0.6	128 µg/mL	224 µM	1.15	64 µg/mL	112 µM	1.15	64 µg/mL	112 µM	1.15	2.2 µg/mL (≈ 4.4 µM)	MIC [7, 16]: 64 µg/mL; MIC [7, 15]: 112 µM; γc (surface tension at the cmc) [9]: 30.6 ± 2.0 mNm^−1; cmc [9]: 5.4 mM; cmc Cond [10]: 1.7 mM; HC50 ([11]; 10 min, room temperature): 74 ± 2.8 µg/mL; HC50 ([11]; value in parentheses): 129 ± 5 µM; EC50 [12]: 9.7 µg/mL (≈ 19.4 µM)
CCCCCCCCCCCCNC(=O)C(CCCNC(=N)N)NC(=O)C(N)Cc1c[nH]c2ccccc12 (centres unmarked) [TANHC12]	0.25	128 µg/mL	108 µM	0.25	64 µg/mL	108 µM	4	4 µg/mL	7 µM	0.1	128 µg/mL	216 µM	0.5	32 µg/mL	54 µM	0.5	32 µg/mL	54 µM	0.25	1.9 µg/mL (≈ 3.6 µM)	MIC ([1]; C. glabrata, RPMI 1640, 24 h, 30 °C): 64 µg/mL; Selectivity Index (HC50/MIC) ([1]; C. glabrata, Table S1): 0.12; MIC ([1]; Nakaseomyces glabratus, ATCC66032, 24 h, C. glabrata, value in parentheses, read-out: MIC): 216 µM; Selectivity Index (HC50/MIC) ([2]; Table S1): 0.25; Selectivity Index (HC50/MIC) ([3]; Table S1): 3.8; Selectivity Index (HC50/MIC) ([4]; Table S1): 0.12; Selectivity Index (HC50/MIC) ([5]; Table S1): 0.5; Selectivity Index (HC50/MIC) ([6]; Table S1): 0.5; Selectivity Index (HC50/MIC) ([7]; Table S1): 0.25; MIC ([7]; ATCC60459): 108 µM; MIC ([7]; ATCC60459, 24 h): 64 µg/mL; γc (surface tension at the cmc) [9]: 28.7 ± 3.3 mNm^−1; cmc [9]: 2.5 mM; cmc Cond [10]: 0.6 mM; HC50 ([11]; 10 min, room temperature): 16 ± 0.3 µg/mL; HC50 ([11]; value in parentheses): 27 ± 0.6 µM; EC50 [12]: 3 µg/mL (≈ 5.68 µM)
